According to US11752162B2, “Compounds and compositions for treating solid tumors by intratumoral administration” (Novartis AG, priority 2017, dated 2023):

Tests used:
[1] = Pharmacokinetics and mass balance of aluminum and Compound 15 in male Wistar rats (Example 12); type: in vivo, rat; conditions: single i.v. dose equivalent to 0.2 mg of aluminum per animal
Experimental: The pharmacokinetics and mass balance of aluminum and Compound 15 were investigated following a single subcutaneous (s.c.) dose (1 mL) of Suspension H (Compound 15/Alhydrogel® at a 2:1 ratio of aluminum to Compound 15) in male Wistar rats. In addition, the pharmacokinetics of aluminum were investigated following a single intravenous (i.v.) dose (0.5 mL) of 0.4 mg/mL AlCl3.6H2O (equivalent to 0.2 mg of aluminum) in male Wistar rat. Additionally, a control group dosed subcutaneously with saline were evaluated for environmental background aluminum levels.
Metal free/trace metal grade containers/tubes/tips (<1 ng/g Al) were used for sample handling. Aluminum content was analyzed in serum and urine (Frontage Laboratories).
Approximately 0.3 to 0.5 mL of blood samples were collected from carotid artery cannulation at 0 (pre dose), 0.083 (IV only), 0.25 (IV only), 0.5, 3, 6, 24, 72, 168, 336, 504, 672 hours post dose.
Urine was collected from each animal for the following periods: 0 (24 h before dose), 0-24, 24-48, 48-72, 72-96, 96-168 hours post dose, then weekly up to 672 h. The urine samples were stored at −20° C. until analyzed. Feces were collected from each animal and samples were pooled per subject at the end of study at 672 h.
Compound 15 and aluminum levels were analyzed in the serum and urine samples obtained from the s.c. group whereas only aluminum levels were analyzed in the i.v. group.

[2] = Adsorption of compounds to aluminum hydroxide in histidine buffer (pH 6.8); type: physicochemical; conditions: histidine buffer pH 6.8, 0.1 mg/mL compound, 37° C. 5 hours
Experimental: The resulting solution was diluted 10-fold with blank histidine buffer to a final compound concentration of 0.1 mg/mL. Diluted solutions were incubated at 37° C. for 5 hours. The samples were centrifuged at 14,000 rpm for 10 minutes to pellet the insoluble. The supernatant (along with an internal standard) was then evaluated by LC-MS/MS using a ballistic gradient (from 5% CH3CN-0.5% formic acid to 95% CH3CN-1.0% formic acid in 3.5 minutes) on a Waters Atlantis dC18 (50 mm×2.1 mm) column at room temperature against a calibration curve prepared at known compound concentrations ranging from 0.005 to 50 μM. The concentration in the supernatant was calculated as % unbound to aluminum hydroxide compared to control; the % bound to aluminum hydroxide was calculated as 100% minus % unbound.

[3] = tested on: MC38 tumors; assay: Contralateral MC38 colon cancer model, alone or with checkpoint inhibitors; type: in vivo, mouse; conditions: single agents; Compound 15 50 μg i.t. weekly x2, antibodies 10 mg/kg i.p. twice weekly
Experimental: MC38 cells were grown in sterile conditions in a 37° C. incubator with 5% CO2 for two weeks. The cells were cultured in Dulbecco's Modified Eagle's medium (DMEM) media supplemented with 10% FBS, cells were passed every 2-3 days. On the day of injection, cells were harvested (Passage 12) and re-suspended in Hanks' Balanced Salt Solution (HBSS) at a concentration of 2.5×10^6/ml. Cells were Radil tested for mycoplasma and murine viruses.
For each mouse, 0.25×10^6 cells were implanted with subcutaneously injection into right flank using a 28½ g needle ([…]). After the first implantation on day 3 (0.25×10^6) cells are implanted with a subcutaneous injection into left flank using a 28½ g needle (100 μL injection volume). Tumor sizes were assessed three times a week once tumors were palpable. Tumor sizes were determined by using caliper measurements, with tumor volumes calculated using the formula: (Length×Width×Width)/2.
Female C57BL/6 mice bearing the MC38 tumors were randomized into 7 groups (n=9 mice per group) 9 days post tumor cell implantation with an average tumor volume range of 69.09-142.25 mm^3, and the separate groups of tumor bearing mice received treatment as shown in Table 17.
The anti-tumor efficacy of Compound 15 adsorbed to aluminum hydroxide (Alhydrogel®) alone or in combination with checkpoint inhibitors, was determined using a contralateral MC38 colon cancer model. The tumor volume was obtained after two weekly intratumoral injections of Compound 15 adsorbed to aluminum hydroxide (50 μg each) either alone (Group 2), in a double combination with intraperitoneal injection (twice weekly) of an anti-PD-L1 antibody (10 mg/kg) (Group 5), in a double combination with intraperitoneal injection (twice weekly) of an anti-CTLA4 antibody (10 mg/kg) (Group 6), or in a triple combination with intraperitoneal injection (twice weekly) of an anti-PD-L1 antibody (10 mg/kg) and with intraperitoneal injection of an anti-CTLA4 antibody (10 mg/kg) (group 7). For comparison, data was obtained after an intraperitoneal injection (twice weekly) of the anti-PD-L1 antibody (10 mg/kg) alone (Group 3) and after an intraperitoneal injection (twice weekly) of the anti-CTLA4 antibody (10 mg/kg) alone (Group 4). The untreated control data was also obtained (Group 1).
The anti-tumor efficacy of Compound 15 alone (without aluminum hydroxide (Alhydrogel®)) or in combination with checkpoint inhibitors was determined using a contralateral MC38 colon cancer model. […] In addition, the anti-tumor efficacy of Compound 15 adsorbed to aluminum hydroxide (Alhydrogel®) alone or in a triple combination with checkpoint inhibitors was determined using a contralateral MC38 colon cancer model. […]

[4] = tested on: MC38 syngeneic colon cancer tumor model; assay: MC38 syngeneic colon cancer tumor model, tumor volume at injection site and distant site; type: in vivo, mice; conditions: One-Way ANOVA post hoc Tukey, difference from no treatment
Text: FIG. 10: A) Efficacy at the intratumor injection site following administration of Compound 15/aluminum hydroxide, an anti-PDL1 antibody or an anti-CTLA4 antibody as single agents or after the administration of combinations of Compound 15/aluminum hydroxide and an anti-PDL1 antibody and/or an anti-CTLA4 antibody.
The effect on tumor volume by administration of a compound of Formula (A), in the presence of aluminum-containing particles, with and without the administration of one or more checkpoint inhibitors is shown in Example 14.
Percent treatment/control (T/C) values for tumor were calculated using the following formula: % T/C=100×ΔT/ΔC if ΔT>0% % Regression=100×ΔT/Tinitial if ΔT<0 where: • T=mean tumor volume of the drug-treated group on the final day of the study; • ΔT=mean tumor volume of the drug-treated group on the final day of the study minus mean tumor volume of the drug-treated group on initial day of dosing; • Tinitial=mean tumor volume of the drug-treated group on initial day of dosing; • C=mean tumor volume of the control group on the final day of the study; • ΔC=mean tumor volume of the control group on the final day of the study minus mean tumor volume of the control group on initial day of dosing. All data were expressed as mean±standard error of the mean (SEM). Delta tumor volume

O.O.O.O.O.O.[Al+3].[Cl-].[Cl-].[Cl-] [AlCl3.6H2O]
AUClast of aluminum [1]: 67400 ng·h/mL
mean Cmax of aluminum in serum [1]: 26000 ng/mL
mean Tmax of aluminum [1]: 13.2 min
mean recovery of aluminum in urine [1]: ~0.2 mg

Cc1ccc2c(c1)nc(N)c1ncc(CCc3ccc(OCCOCCOCCC(F)(F)P(=O)(O)O)cc3C)cc12 [Compound 1, (3-(2-(2-(4-(2-(5-amino-8-methylbenzo[f][1,7]naphthyridin-2-yl)ethyl)-3-methylphenoxy)ethoxy)ethoxy)-1,1-difluoropropyl)phosphonic acid]
% Bound [2]: 98.2%

Cc1cc(OCCCC(F)(F)P(=O)(O)O)ccc1CCc1cnc2c(N)nc3cc(CCC(=O)O)ccc3c2c1 [Compound 17, 3-(5-amino-2-(4-(4,4-difluoro-4-phosphonobutoxy)-2-methylphenethyl)benzo[f][1,7]naphthyridin-8-yl)propanoic acid]
% Bound [2]: 94.5%

Cc1cc(OCCOCCOCCC(F)(F)P(=O)(O)O)ccc1CCc1cnc2c(N)nc3cc(CCC(=O)O)ccc3c2c1 [Compound 18, 3-(5-amino-2-(4-(2-(2-(3,3-difluoro-3-phosphonopropoxy)ethoxy)ethoxy)-2-methylphenethyl)benzo[f][1,7]naphthyridin-8-yl)propanoic acid]
% Bound [2]: 96.2%

Cc1cc(OCCOCCOCCP(=O)(O)O)ccc1CCc1cnc2c(N)nc3cc(CCC(=O)O)ccc3c2c1 [Compound 20, 3-(5-amino-2-(2-methyl-4-(2-(2-(2-phosphonoethoxy)ethoxy)ethoxy)phenethyl)benzo[f][1,7]naphthyridin-8-yl)propanoic acid]
% Bound [2]: 97.0%

B1: anti-PD-L1: Anti-PD-L1 antibody BAP058-hum13 with heavy chain variable domain of SEQ ID NO:7 and light chain variable domain of SEQ ID NO:17 (antibody, V domains shown)
VH: EVQLVQSGAEVKKPGATVKISCKVSGYTFTSYWMYWVRQARGQRLEWIGRIDPNSGSTKYNEKFKNRFTISRDNSKNTLYLQMNSLRAEDTAVYYCARDYRKGLYAMDYWGQGTTVTVSS
VL: AIQLTQSPSSLSASVGDRVTITCKASQDVGTAVAWYLQKPGQSPQLLIYWASTRHTGVPSRFSGSGSGTDFTFTISSLEAEDAATYYCQQYNSYPLTFGQGTKVEIK
% T/C at the contralateral tumor site [3]: 27.02%
% T/C at the primary injection site [3]: 56.22%

B2: Anti PD-L1: anti-PDL1 antibody, inhibitor of the PD-L1 ligand, used as single agent or combination partner (antibody, V domains shown)
VH: B1 VH
VL: B1 VL
Efficacy at a site distant from the injection site (distant site tumor) ([4]; post implant day 19, N=9 per group): significantly different
Efficacy at the intratumor injection site (treated site tumor) ([4]; post implant day 22, N=9 per group): significantly different
